The text below walks through data of patent publication US6610289B2, “Mutated herpes simplex virus type 1 thymidine kinases and uses thereof” (The Board of Trustees of the University of Arkansas, priority 1998, dated 2003).

Assay [1] deals with HCT-116 cells. Nature of the assay: Cell cycle analysis of GCV treated cells (propidium iodide flow cytometry). In kind it is cell-based, human. As to conditions: +GCV 25 μM, 24 hours, HCT-116 expressing the TK. The procedure:
Parental HCT-116 cells and each HSV-1 TK expressing cell line were grown to 60% confluency in 25 cm^2 flasks and treated for 24 hours minus (−GCV, panels A, C, E and G) or plus (+GCV, panels B, D, F and H) 25 μM GCV. Cells were fixed in 70% ethanol overnight, and later incubated with RNAase (0.1%) and propidium iodide (1 mg/ml) for […] on ice. Flow cytometry measuring propidium iodide fluorescence was done with a Becton-Dickinson FACScalibur instrument using MODFIT computer software. FIGS. 6A and 6B: HCT-116 cells; FIGS. 6C and 6D: wild-type HSV-1 TK cells; FIGS. 6E and 6F: Asn-125TK cells, FIGS. 6G and 6H: Glu-125TK cells.
Parental HCT-116 cells and each HSV-1 TK expressing cell line were grown to 60% confluency in 25 cm^2 flasks and treated for 24 hours plus or minus 25 μM GCV. Following drug incubation, cells were removed by trypsin and total cell numbers determined. Following two phosphate buffered saline rinsing and centrifugation cycles, the cell pellets were resuspended in 1 ml of 70% ethanol and stored at 4° C. until further analysis. Just prior to cell cycle analysis, the ethanol was removed and cell pellets were resuspended in phosphate-buffered saline plus RNAase (0.1%) and propidium iodide (1 mg/ml) for 30 minutes on ice. Flow cytometry measuring propidium iodide fluorescence was done with a Becton-Dickinson FACScalibur instrument. Cell cycle distribution of the cells were determined using MODFIT computer software
GCV has also been previously reported to induce S and G2-M phase cell cycle arrest in HSV-1 TK expressing glioma and melanoma cell lines (36-38). Therefore, the effect of 24 hr GCV treatment on the cell cycling of parental and the three HSV-1 TK-expressing cell lines was examined by flow cytometry of propidium iodide stained cells. As shown in FIGS. 6A and 6B and Table 5, GCV treatment of HCT-116 parental, non-HSV-1 TK-expressing cells had little effect on the percentage of cells in each phase of the cell cycle as compared with untreated cells. In the wild-type and Asn-125TK-expressing cell lines, GCV treatment (FIGS. 6D and 6F) led to an increase in the proportion of cells in the S-phase, and undetectable percentages in G2-M phase when compared to untreated cultures (FIGS. 6C and 6E). For the Glu-125TK-expressing cells, over 50% of the GCV treated cells were in S-phase and less than 3% were in G2-M (FIG. 6H).

The next assay has as its system NIH3T3 cells. Nature of the assay: MTT cell viability, sensitivity to GCV killing, NIH3T3 cell lines expressing HSV-1 TKs. In kind it is cell-based, murine. To be noted: NIH3T3, GCV 0-5 μM, 4 days, FIG. 3A. The procedure:
(§1) Cells were plated in triplicate and exposed to 0, 0.05, 0.5 or 5 μM GCV for four days. Cell viabilities were determined using MTT dye. […] FIG. 3A: NIH3T3 cell lines, FIG. 3B: HCT-116 cell lines; parental cells (noTK, dark bands); Asp125TK (Asp-#, brick band); Glu-125TK (Glu-#, cross-hatch bands); Asn-125TK (Asn-#, gray bands); wild-type HSV-1 TK (WT-#, striped bands).
A Moloney murine leukemia virus derived plasmid for the expression of HSV-TK, termed pLENTK, has been previously constructed (24). A unique BspEI-MluI restriction fragment within the HSV-TK sequence of pLENTK contains the Gln-125 mutation site. This fragment was removed from wild-type plasmid and replaced with the analogous fragments encoding each mutant. […] Along with wild-type HSV-1 TK plasmid, each mutant-TK plasmid was transfected individually into the murine fibroblast cell line, NIH 3T3, and the human colon tumor cell line, HCT-116, using lipofectin reagent (GIBCO/BRL) (2 μg plasmid, 14 μl lipid per 1×10^6 cells). Cells were maintained in RPMI 1640 media and selected with G418 (200 μg/ml for 2 weeks) as previously described (24). At least eight individual G418 resistant cell clones were picked and grown up for further characterization. Each clone was screened initially for growth inhibition by 25 μM GCV. Those clones that were sensitive were further analyzed for HSV-TK protein expression by Western blot analysis with a polyclonal, rabbit anti-HSV-TK antibody (a gift from Dr. Margaret Black). […] After 4 days, MTT ([…]) was added for 1.5 hours, followed by DMSO solubilization of the cells and absorbance reading at 540 nm (25).
cDNA for each mutant was incorporated into a Moloney murine leukemia virus plasmid (24). […] Following drug selection in G418, individual cell clones were evaluated for sensitivity to GCV and relative levels of HSV-1 TK expression. Using an HSV-1 TK antibody and extracts normalized by protein and cell number, the relative expression levels of HSV-1 TK in each cell clone were determined.

Assay [2] deals with HCT-116 cells. The experiment in a line: MTT cell viability, sensitivity to GCV killing, HCT-116 cell lines expressing HSV-1 TKs. As to conditions: HCT-116, GCV 0-5 μM, 4 days, FIG. 3B. In kind it is cell-based, human. On the procedure: as §1
A Moloney murine leukemia virus derived plasmid for the expression of HSV-TK, termed pLENTK, has been previously constructed (24). A unique BspEI-MluI restriction fragment within the HSV-TK sequence of pLENTK contains the Gln-125 mutation site. This fragment was removed from wild-type plasmid and replaced with the analogous fragments encoding each mutant. […] Along with wild-type HSV-1 TK plasmid, each mutant-TK plasmid was transfected individually into the murine fibroblast cell line, NIH 3T3, and the human colon tumor cell line, HCT-116, using lipofectin reagent (GIBCO/BRL) (2 μg plasmid, 14 μl lipid per 1×10^6 cells). Cells were maintained in RPMI 1640 media and selected with G418 (200 μg/ml for 2 weeks) as previously described (24). At least eight individual G418 resistant cell clones were picked and grown up for further characterization. Each clone was screened initially for growth inhibition by 25 μM GCV. Those clones that were sensitive were further analyzed for HSV-TK protein expression by Western blot analysis with a polyclonal, rabbit anti-HSV-TK antibody (a gift from Dr. Margaret Black). For each clone, cell numbers were normalized to 1×10^6, and equal protein loading was confirmed for each sample by gel staining. Blotted HSV-1 TK protein bands were visualized on film using ECL chromophore reagents (Amersham). For analysis of GCV sensitivity of different clones, NIH3T3 and HCT-116 cell sets were seeded in 96 well plates in 0.1 ml media (15,000 cells/well). The next day, a dose range of GCV (0.005 to 5 mM, n=3) was added in 0.1 ml media. After 4 days, MTT ([…]) was added for 1.5 hours, followed by DMSO solubilization of the cells and absorbance reading at 540 nm (25).
cDNA for each mutant was incorporated into a Moloney murine leukemia virus plasmid (24). The plasmids for wild-type HSV-1 TK and each mutant were individually transfected into either NIH3T3 cells or the human colon tumor cell line, HCT-116. Following drug selection in G418, individual cell clones were evaluated for sensitivity to GCV and relative levels of HSV-1 TK expression. Using an HSV-1 TK antibody and extracts normalized by protein and cell number, the relative expression levels of HSV-1 TK in each cell clone were determined.

Regarding Glu-125, the “Cell cycle phase G0/G1” value with HCT-116 cells [1] is listed as 39.0%. Also, the entries for the “Dose dependent cell killing by GCV (cell viability, MTT)” value (from here on “Dose dependent cell killing by GCV”) in the assay with NIH3T3 cells, with HCT-116 cells [2] (listed as Glu-125 HSV-1 TK) and in the assay with HCT-116 cells [2] (listed as Glu-125TK) were “minimal cell killing”, “just as sensitive to GCV killing” and “cell viabilities dropped precipitously”, respectively.

Consider “Gln-125 (WT): wild-type herpes simplex virus type 1 thymidine kinase with glutamine at position 125, parent enzyme [reference compound]”, for which the “Cell cycle phase G0/G1” value with HCT-116 cells [1] is listed as 60.1%. Moreover, the entries for the “Cell cycle phase G2/M” value with HCT-116 cells [1] and in the assay on HCT-116 cells [1] (listed as WTGln-125TK) were “undetectable” and 0%, respectively. Besides, the “Cell cycle phase S” value in the assay on HCT-116 cells [1] came out at 39.9%. Moreover, the “Dose dependent cell killing by GCV” value was “proportionally more cell killing” with NIH3T3 cells, “as effective as wild-type HSV-1 TK” in the assay on HCT-116 cells [2] (listed as Gln-125) and “proportionally more cell killing” with HCT-116 cells [2] (listed as wild-type).

Turning to Asn-125, in the assay on HCT-116 cells [1], the “Cell cycle phase G0/G1” value is given as 70.0%. Also, the “Cell cycle phase S” value in the assay on HCT-116 cells [1] came out at 30.0%. For the same substance, the “Dose dependent cell killing by GCV” value in the assay with NIH3T3 cells is given as “proportionally more cell killing”; in the assay on HCT-116 cells [2], “as effective as wild-type HSV-1 TK”; in the assay with HCT-116 cells [2] (listed as Asn-125TK), “proportionally more cell killing”.
